What all share (test): growth of human tumour cells (NCI), 48 h
Experiment [1] has as its system MDA-MB-435.
Experiment [2] concerns HT29 colon.
The subject of experiment [3] is NCI-H522 lung.
Experiment [4] has as its system MCF7 breast.
The test system of experiment [5] is RPMI-8226 leukemia.
Experiment [6] deals with 786-0 renal.
Experiment [7] has as its system SF-295 CNS.
Experiment [8] has as its system SK-MEL-5 melanoma.
In experiment [9] the test system is SK-MEL-2 melanoma.
The test system of experiment [10] is MOLT-4 leukemia.
Experiment [11] relates to RXF 393 renal.
The test system of experiment [12] is UACC-257 melanoma.
For experiment [13], the system named is COLO 205 colon.
Experiment [14] deals with SW-620 colon.
The subject of experiment [15] is SF-268 CNS.
The subject of experiment [16] is OVCAR-8 ovarian.
Experiment [17] deals with EKVX NSCLC.
Experiment [18] relates to NCI-H23 lung.
The test system of experiment [19] is HCT-15 colon.
For experiment [20], the system named is SNB-19 CNS.

This is an account of results in PubChem BioAssay (NCI).

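A five-concentration, 48-hour dose response in 96-well plates underlies each endpoint, interpolated linearly between surrounding concentrations. TGI denotes the concentration required for complete inhibition of growth.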

Turning to `CCc1cccc(C(C)(C)C)c1NC(=S)N/C=C(/C#N)C(N)=O`, the TGI in experiment [1], in [2], in [3], in experiment [4], in [5] and in experiment [6] was more than 100 µM throughout. The TGI in [7], in experiment [8], in experiment [9], in [10], in experiment [11] and in [12] was more than 100 µM in each case. Moreover, the TGI in experiment [13], in experiment [14], in experiment [15], in [16], in [17] and in experiment [18] was more than 100 µM throughout. Moreover, the TGI in [19] and in [20] was more than 100 µM each time.
As to `O=C(c1ccccc1)n1c(Cc2ccccc2)nc2cc(C34CC5CC(CC(C5)C3)C4)ccc21`, the TGI in experiment [1] is more than 100 µM; in [2] it was more than 100 µM; in experiment [3], more than 100 µM; in experiment [4], 90 µM; in experiment [5] it was more than 100 µM; in [6], more than 100 µM. In addition, the TGI in [7] was more than 100 µM; in experiment [8], 56.5 µM; in experiment [9], more than 100 µM; in experiment [10] it was more than 100 µM; in [11] it was more than 100 µM; in [12] it was more than 100 µM. For the same molecule, the TGI in experiment [13] is 58.2 µM; in [14] it was more than 100 µM; in [15] it was more than 100 µM; in experiment [16], more than 100 µM; in experiment [17], more than 100 µM; in experiment [18], more than 100 µM. Further, the TGI is 48.5 µM in experiment [19] and more than 100 µM in experiment [20].
As for `Cc1ccc2nc3c(=O)[nH]c(=O)nc-3n(C)c2c1C`, the TGI in experiment [1], in experiment [2], in experiment [3], in [4], in experiment [5] and in experiment [6] was more than 100 µM throughout. For the same molecule, the TGI in experiment [7], in experiment [8], in [9], in experiment [10], in experiment [11] and in experiment [12] was more than 100 µM each time. Further, the TGI in experiment [13], in experiment [14], in [15], in experiment [16], in [17] and in [18] was more than 100 µM each time. The TGI in experiment [19] and in [20] was more than 100 µM in each case.
With `CN(Cc1ccccc1)C(=NC#N)N(Cc1ccccc1)Cc1ccccc1`, the TGI stood at 33.7 µM in [1]; 36.3 µM in experiment [2]; 55.5 µM in [3]; 93.2 µM in experiment [4]; 55.4 µM in [5]; 97.6 µM in [6]. Moreover, the TGI in experiment [7] was 47.4 µM; in experiment [8] it was 33.3 µM; in experiment [9], 40.7 µM; in experiment [10], more than 100 µM; in experiment [11], 95.9 µM; in experiment [12], 54.4 µM. Moreover, the TGI in experiment [13] was 36.2 µM; in experiment [14], more than 100 µM; in experiment [15], more than 100 µM; in experiment [16], more than 100 µM; in experiment [17], more than 100 µM; in experiment [18], 64 µM. In addition, the TGI in [19] is 71 µM; in experiment [20] it was more than 100 µM.
As for `O=C(O)c1n[nH][nH]c1=S`, the TGI in experiment [1], in experiment [2], in experiment [3], in [4], in experiment [5] and in experiment [6] was more than 100 µM each time. Besides, the TGI in experiment [7], in experiment [8], in [9], in [10], in experiment [11] and in experiment [12] was more than 100 µM each time. The TGI in experiment [13], in experiment [14], in experiment [15], in experiment [16], in [17] and in [18] was more than 100 µM each time. Further, the TGI in experiment [19] and in [20] was more than 100 µM throughout.
In the case of `CC[C@@]1(O)C(=O)OCc2c1cc1n(c2=O)Cc2c-1nc1ccccc1c2/C=N\NC(=O)C(N)CO` (stereo not given in full), the TGI is more than 31.6 µM in experiment [1]; more than 90.4 µM in [2]; more than 42.2 µM in [3]; 21.3 µM in experiment [4]; more than 73.2 µM in experiment [5]; 13 µM in experiment [6]. For the same molecule, the TGI in experiment [7] is more than 100 µM; in experiment [8], 2.55 µM; in experiment [9] it was more than 100 µM; in experiment [10], 1.58 µM; in experiment [11], 7.73 µM; in experiment [12] it was more than 65.8 µM. In addition, the TGI in [13] is more than 100 µM; in experiment [14], more than 100 µM; in experiment [15], 7.36 µM; in [16], 39.6 µM; in experiment [17], more than 100 µM; in experiment [18], 5.38 µM. The TGI in experiment [19] and in [20] was more than 100 µM throughout.
With `OC1c2ccccc2CC12Cc1ccccc1C2` (stereo not given), the TGI in [1], in experiment [2], in experiment [3], in [4], in [5] and in [6] was more than 100 µM throughout. The TGI in experiment [7] was more than 100 µM; in experiment [8] it was 49.6 µM; in [9], more than 100 µM; in experiment [10], more than 100 µM; in experiment [11] it was more than 100 µM; in experiment [12], more than 100 µM. Besides, the TGI in experiment [13], in experiment [14], in experiment [15], in [16], in [17] and in experiment [18] was more than 100 µM in each case. For the same molecule, the TGI in experiment [19] and in experiment [20] was more than 100 µM in each case.
For the molecule `Fc1ccc(C(OCCN2CCN(CCCCl)CC2)c2ccc(F)cc2)cc1`, the TGI was 32.1 µM in experiment [1]; 40 µM in experiment [2]; 36.8 µM in experiment [3]; 41.1 µM in [4]; 49.5 µM in [5]; 94.6 µM in experiment [6]. In addition, the TGI is 58.1 µM in experiment [7]; 32.4 µM in experiment [8]; 52 µM in experiment [9]; more than 100 µM in experiment [10]; 44.4 µM in [11]; 47.5 µM in [12]. Further, the TGI in experiment [13] was 32.7 µM; in [14], more than 100 µM; in [15], 77.5 µM; in experiment [16] it was 91 µM; in experiment [17], more than 100 µM; in experiment [18], 50.5 µM. Moreover, the TGI in experiment [19] was 33.8 µM; in experiment [20] it was more than 100 µM.
With `Cc1ccc(S(=O)(=O)N2CCC(=O)c3cc(Br)ccc32)cc1`, the TGI in [1] is 4.98 µM; in experiment [2], more than 100 µM; in experiment [3] it was more than 55.6 µM; in [4], more than 49.1 µM; in experiment [5] it was 76.4 µM; in experiment [6], more than 67.2 µM. The TGI was 55.7 µM in [7]; 21.7 µM in [8]; 36.3 µM in [9]; more than 26.6 µM in [10]; 53.6 µM in experiment [11]; 46.6 µM in [12]. The TGI in experiment [13] was 31.3 µM; in experiment [14] it was more than 100 µM; in experiment [15], more than 94.8 µM; in experiment [16], more than 100 µM; in experiment [17] it was 96.3 µM; in [18], more than 93.9 µM. Further, the TGI in experiment [19] is more than 100 µM; in experiment [20] it was 99.4 µM.
For `C[C@]12CC[C@@H]3c4ccc(O)cc4CC[C@H]3[C@@H]1CC[C@@H]2OP(=O)(O)O`, the TGI in experiment [1], in experiment [2], in experiment [3], in experiment [4], in [5] and in experiment [6] was more than 100 µM throughout. Moreover, the TGI in experiment [7], in experiment [8], in experiment [9], in experiment [10], in experiment [11] and in experiment [12] was more than 100 µM each time. Also, the TGI in experiment [13], in experiment [14], in experiment [15], in [16], in [17] and in [18] was more than 100 µM in each case. For the same molecule, the TGI in experiment [19] and in [20] was more than 100 µM throughout.
On to `CN(CCNC(=O)c1nn(-c2ccccc2)c2c1Cc1ccccc1-2)CCNC(=O)c1nn(-c2ccccc2)c2c1Cc1ccccc1-2`, for which the TGI in experiment [1] was 3.17 µM; in [2], 3.73 µM; in [3] it was 3.15 µM; in [4] it was 3.19 µM; in experiment [5], 14.1 µM; in experiment [6], 3.08 µM. Moreover, the TGI in experiment [7] is 3.34 µM; in [8], 3.38 µM; in experiment [9], 3.38 µM; in experiment [10], 11 µM; in experiment [11], 3.07 µM; in [12], 3.42 µM. Further, the TGI was determined as 3.32 µM in experiment [13]; 3.09 µM in experiment [14]; 4.74 µM in [15]; 3.17 µM in experiment [16]; 9.65 µM in experiment [17]; 3.7 µM in experiment [18]. Moreover, the values for the TGI in experiment [19] and in [20] were 3.67 µM and 4.43 µM, respectively.
Take `O=C1NCC(CSc2nc3cc(C4CCCc5c4[nH]c4ccccc54)ccc3o2)N1` (stereo not given): the TGI in experiment [1], in experiment [2], in [3], in [4], in [5] and in experiment [6] was more than 100 µM in each case. Further, the TGI in [7], in experiment [8], in experiment [9], in experiment [10], in [11] and in experiment [12] was more than 100 µM each time. The TGI in experiment [13] is more than 100 µM; in [14] it was more than 100 µM; in experiment [15], more than 100 µM; in experiment [16], 88.1 µM; in [17] it was more than 100 µM; in [18], more than 100 µM. Also, the TGI in [19] and in experiment [20] was more than 100 µM throughout.
On to `C[C@@]1(O)C[C@@H](N2C(=O)O[C@@H](c3ccccc3)[C@H]2c2ccccc2)[C@@H]1COCc1ccccc1`, for which the TGI is more than 100 µM in experiment [1]; 50.6 µM in experiment [2]; 38.3 µM in experiment [3]; more than 100 µM in experiment [4]; 68.8 µM in experiment [5]; 48.9 µM in experiment [6]. Besides, the TGI worked out at 41.3 µM in experiment [7]; 27.2 µM in [8]; 27.5 µM in experiment [9]; 26.4 µM in [10]; 80.2 µM in experiment [11]; 36.7 µM in experiment [12]. Moreover, the TGI in experiment [13] was 36.4 µM; in experiment [14], more than 100 µM; in [15], 48.1 µM; in experiment [16] it was 54 µM; in experiment [17], 70.3 µM; in experiment [18] it was 43.6 µM. Also, the values for the TGI in experiment [19] and in [20] were 84.3 µM and more than 100 µM, respectively.
